Test results published in patent US20030045501A1, “Use of atazanavir in HIV therapy” (priority 2001, published 2003).

Legend:
HIV [1] = assay: Phase II randomized study atazanavir vs nelfinavir: anti-HIV activity (viral load); format: in vivo; conditions: atazanavir 200, 400 or 500 mg once daily, monotherapy two weeks then with stavudine and didanosine; treatment-naive patients
Method: In a Phase II randomized study, the safety and anti-HIV activity of three once daily doses of atazanavir (200 mg, 400 mg and 500 mg) was compared with 750 mg of the protease inhibitor, nelfinavir dosed three times daily. Twenty-one patients received nelfinavir in combination with stavudine and didanosine, while atazanavir was administered both as monotherapy (for two weeks) and then in combination with stavudine and didanosine to 78 treatment-naive (no prior anti-HIV therapy) patients with HIV viral loads >2000 copies per milliliter (c/mL).

CYP3A = assay: Inhibition of cytochrome P450 3A enzyme; format: biochemical
Text: Similarly, appropriate dosing of other HIV protease inhibitors to be used in combination with atazanavir can be calculated.

HIV [2] = assay: Phase II three-arm study atazanavir vs ritonavir, each with saquinavir + 2 NRTIs: antiviral activity; format: in vivo; conditions: atazanavir groups vs ritonavir
Method: (§1) In another two-stage, randomized three-arm Phase II study, the antiviral activity and metabolic effects of atazanavir at two different doses (400 mg or 600 mg) was compared to ritonavir, each in combination with saquinavir over 48 weeks. The protease inhibitors were administered in combination with two nucleoside reverse transcriptase inhibitors selected from didanosine, stavudine, lamivudine or zidovudine. The selection of reverse transcriptase inhibitors (used in combination as didanosine+stavudine, stavudine+lamivudine, didanosine+zidovudine, or lamivudine+zidovudine) was based on the patient's phenotypic sensitivity and the physician's choice at the time of administration. The regimens were as follows: […]
(§2) atazanavir 400 mg QD+saquinavir 1200 mg QD+2 nucleoside reverse transcriptase inhibitors atazanavir 600 mg QD+saquinavir 1200 mg QD+2 nucleoside reverse transcriptase inhibitors ritonavir 400 mg BID+saquinavir 400 mg BID+2 nucleoside reverse transcriptase inhibitors Patients were anti-retroviral-experienced with a treatment history of receiving a minimum of 24 weeks of a protease inhibitor-containing or non-nucleoside reverse transcriptase inhibitor-containing combination regimen. Stage 1 was to randomize approximately 75 subjects to assess the safety and antiviral activity of the regimens. […]

[3] = set-up: species or system human; conditions: in vivo
Method: as §1, §2

[4] = human, in vivo
Text: In clinical studies carried out on 98 HIV-positive patients who have taken atazanavir for one year, no increases in plasma LDL-cholesterol or triglycerides were observed. Thus, atazanavir is particularly useful in the treatment of HIV-positive patients who have elevated plasma LDL-cholesterol and/or triglyceride levels. It can be used as monotherapy or as part of a “cocktail” which would include other antiretroviral drugs such as reverse transcriptase inhibitors, non-nucleoside reverse transcriptase inhibitors, and other HIV protease inhibitors.

[5] = saquinavir dosed at 1200 mg TID; at steady-state; cited from earlier work

Row | SMILES | reductions in viral load compared to the nelfinavir-treated patients (HIV [1]) | Ki (CYP3A) [µM] | antiviral efficacy through week 12, compared to ritonavir (HIV [2]) | LDL-cholesterol elevation over baseline [3] | increases in plasma LDL-cholesterol [4] | increases in plasma triglycerides [4] | increase of the exposure of saquinavir [5] [%]
1 | COC(=O)N[C@H](C(=O)N[C@@H](Cc1ccccc1)[C@@H](O)CN(Cc1ccc(-c2ccccn2)cc1)NC(=O)[C@@H](NC(=O)OC)C(C)(C)C)C(C)(C)C [atazanavir] | at least comparable | 2.4 | similar | not elevated | no increases | no increases | –
2 | Cc1c(O)cccc1C(=O)N[C@@H](CSc1ccccc1)[C@H](O)CN1C[C@H]2CCCC[C@H]2C[C@H]1C(=O)NC(C)(C)C [nelfinavir] | – | – | – | – | – | – | 392
